Experimental data taken from US20240218022A1, “ANTI-VISTA MACROCYCLIC PEPTIDES AND COMPOSITIONS” (BRISTOL-MYERS SQUIBB COMPANY, priority 2022, published 2024).
Like-named read-outs stand apart in the source and are kept apart here. Positions of bridges follow the written chain, without caps; N, C: chain ends. Non-standard residues stand in square brackets, D forms with d. Residues, ends and D or L forms follow the SMILES beside them. ξ: configuration not given here. Phe(3-Me) = Cc1cccc(C[C@H](N)C(=O)O)c1; Phe(4-Me) = Cc1ccc(C[C@H](N)C(=O)O)cc1; Cit = NC(=O)NCCC[C@H](N)C(=O)O; Ahp(2) = CCCCC[C@H](N)C(=O)O; NMeNle = CCCC[C@H](NC)C(=O)O; Tle = CC(C)(C)[C@H](N)C(=O)O; NHexGly = CCCCCCNCC(=O)O; Nle = CCCC[C@H](N)C(=O)O; Orn = NCCC[C@H](N)C(=O)O; ξD = NC(CC(=O)O)C(=O)O; ξS = NC(CO)C(=O)O

Biological target: T1, mouse VISTA (mVISTA) (Mus musculus, UniProt Q9D659)
T1 construct: expressed in transfected cells; host or cells: Human embryonic kidney 293T cells
T1 sequence (Q9D659 33-308): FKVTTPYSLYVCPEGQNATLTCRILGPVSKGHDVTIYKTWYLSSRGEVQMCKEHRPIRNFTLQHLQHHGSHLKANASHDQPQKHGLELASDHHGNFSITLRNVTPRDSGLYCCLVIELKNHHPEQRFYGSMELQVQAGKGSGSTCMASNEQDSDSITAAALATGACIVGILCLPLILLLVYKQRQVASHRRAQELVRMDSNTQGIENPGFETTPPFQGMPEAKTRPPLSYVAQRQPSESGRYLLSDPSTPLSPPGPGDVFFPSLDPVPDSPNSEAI
Assay: Cell-Based Binding High-Content Assay For mVISTA (HC CBA mVISTA)
Details: read-out: HC CBA mVISTA IC50
Summary of the method: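 This high-content binding assay uses HEK293T cells expressing murine VISTA, measuring displacement of 2 nM biotinylated peptide by fluorescent streptavidin imaging. IC50 values come from four-parameter logistic fitting.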

[1] = the 19th table, scaffold drawing 22

Work on `CCCCCCN1CC(=O)N[C@@H](Cc2ccc(O)cc2)C(=O)N[C@@H](CCCC)C(=O)N[C@@H](CC(=O)O)C(=O)N[C@@H](CCCNC(=N)N)C(=O)N(C)[C@@H](CCCC)C(=O)N[C@@H](CCCCC)C(=O)N2CCC[C@H]2C(=O)N[C@@H](C(C)C)C(=O)N[C@@H](CC(=O)O)C(=O)N[C@H](C(=O)NC(CC(=O)O)C(N)=O)CSCC(=O)N[C@@H](Cc2ccccc2)C(=O)N[C@@H](Cc2cccc(C)c2)C(=O)N[C@@H](CC(=O)O)C1=O` (stereo partly drawn) [compound 1342] ({CH2CO}-F[Phe(3-Me)]D[NHexGly]Y[Nle]DR[NMeNle][Ahp(2)]PVDC[ξD]-NH2; thioether N-14) yielded an IC50 of 12.5 nM.
`CCCCCCN1CC(=O)N[C@@H](Cc2ccc(O)cc2)C(=O)N[C@@H](CCCC)C(=O)N[C@@H](CC(=O)O)C(=O)N[C@@H](CCCN)C(=O)N(C)[C@@H](CCCC)C(=O)N[C@@H](CCCCC)C(=O)N2CCC[C@H]2C(=O)N[C@@H](C(C)C)C(=O)N[C@@H](CC(=O)O)C(=O)N[C@H](C(=O)NC(CC(=O)O)C(N)=O)CSCC(=O)N[C@@H](Cc2ccccc2)C(=O)N[C@@H](Cc2cccc(C)c2)C(=O)N[C@@H](CC(=O)O)C1=O` (stereo partly drawn) [compound 1343] ({CH2CO}-F[Phe(3-Me)]D[NHexGly]Y[Nle]D[Orn][NMeNle][Ahp(2)]PVDC[ξD]-NH2; thioether N-14) was tested, and the IC50 was 17.8 nM.
For `CCCCCCN1CC(=O)N[C@@H](Cc2ccc(O)cc2)C(=O)N[C@@H](CCCCC)C(=O)N[C@@H](CC(N)=O)C(=O)N[C@@H](CCCNC(=N)N)C(=O)N(C)[C@@H](CCCC)C(=O)N[C@@H](CCCCC)C(=O)N2CCC[C@H]2C(=O)N[C@@H](C(C)C)C(=O)N[C@@H](C(C)C)C(=O)N[C@H](C(=O)NCC(=O)O)CSCC(=O)N[C@@H](Cc2ccccc2)C(=O)N[C@@H](Cc2cccc(C)c2)C(=O)N[C@@H](CC(=O)O)C1=O` [compound 1344] ({CH2CO}-F[Phe(3-Me)]D[NHexGly]Y[Ahp(2)]NR[NMeNle][Ahp(2)]PVVCG-OH; thioether N-14), the IC50 was 11 nM.
`CCCCCCN1CC(=O)N[C@@H](Cc2ccc(O)cc2)C(=O)N[C@@H](CCCC)C(=O)N[C@@H](CC(N)=O)C(=O)N[C@@H](CCCNC(=N)N)C(=O)N(C)[C@@H](CCCC)C(=O)N[C@@H](CCCCC)C(=O)N2CCC[C@H]2C(=O)N[C@@H](C(C)C)C(=O)N[C@@H](CC(=O)O)C(=O)N[C@H](C(=O)NCC(=O)O)CSCC(=O)N[C@@H](Cc2ccccc2)C(=O)N[C@@H](Cc2cccc(C)c2)C(=O)N[C@@H](CC(=O)O)C1=O` [compound 1345] ({CH2CO}-F[Phe(3-Me)]D[NHexGly]Y[Nle]NR[NMeNle][Ahp(2)]PVDCG-OH; thioether N-14) was tested, and the IC50 was 12.7 nM.
`CCCCCCN1CC(=O)N[C@@H](Cc2ccc(O)cc2)C(=O)N[C@@H](CCCCC)C(=O)N[C@@H](CC(N)=O)C(=O)N[C@@H](CCCNC(=N)N)C(=O)N(C)[C@@H](CCCC)C(=O)N[C@@H](CCCCC)C(=O)N2CCC[C@H]2C(=O)N[C@@H](C(C)C)C(=O)N[C@@H](C(C)C)C(=O)N[C@H](C(=O)NC(CO)C(=O)O)CSCC(=O)N[C@@H](Cc2ccccc2)C(=O)N[C@@H](Cc2cccc(C)c2)C(=O)N[C@@H](CC(=O)O)C1=O` (stereo partly drawn) [compound 1346] ({CH2CO}-F[Phe(3-Me)]D[NHexGly]Y[Ahp(2)]NR[NMeNle][Ahp(2)]PVVC[ξS]-OH; thioether N-14) was tested, and the IC50 was 6.1 nM.
With `CCCCCCN1CC(=O)N[C@@H](Cc2ccc(O)cc2)C(=O)N[C@@H](CCCC)C(=O)N[C@@H](CC(=O)O)C(=O)N[C@@H](CCCNC(=N)N)C(=O)N(C)[C@@H](CCCC)C(=O)N[C@@H](CCCCC)C(=O)N2CCC[C@H]2C(=O)N[C@@H](C(C)C)C(=O)N[C@@H](CC(=O)O)C(=O)N[C@H](C(=O)NC(CO)C(N)=O)CSCC(=O)N[C@@H](Cc2ccccc2)C(=O)N[C@@H](Cc2cccc(C)c2)C(=O)N[C@@H](CC(=O)O)C1=O` (stereo partly drawn) [compound 1347] ({CH2CO}-F[Phe(3-Me)]D[NHexGly]Y[Nle]DR[NMeNle][Ahp(2)]PVDC[ξS]-NH2; thioether N-14) the IC50 was 10.6 nM.
Work on `CCCCCCN1CC(=O)N[C@@H](Cc2ccc(O)cc2)C(=O)N[C@@H](CCCC)C(=O)N[C@@H](CC(=O)O)C(=O)N[C@@H](CCCN)C(=O)N(C)[C@@H](CCCC)C(=O)N[C@@H](CCCCC)C(=O)N2CCC[C@H]2C(=O)N[C@@H](C(C)C)C(=O)N[C@@H](CC(=O)O)C(=O)N[C@H](C(=O)NC(CO)C(N)=O)CSCC(=O)N[C@@H](Cc2ccccc2)C(=O)N[C@@H](Cc2cccc(C)c2)C(=O)N[C@@H](CC(=O)O)C1=O` (stereo partly drawn) [compound 1348] ({CH2CO}-F[Phe(3-Me)]D[NHexGly]Y[Nle]D[Orn][NMeNle][Ahp(2)]PVDC[ξS]-NH2; thioether N-14) yielded an IC50 of 23.2 nM.
`CCCCCCN1CC(=O)N[C@@H](Cc2ccc(O)cc2)C(=O)N[C@@H](CC(C)C)C(=O)N[C@@H](CC(N)=O)C(=O)N[C@@H](CCCNC(=N)N)C(=O)N(C)[C@@H](CCCC)C(=O)N[C@@H](CCCCC)C(=O)N2CCC[C@H]2C(=O)N[C@@H](C(C)(C)C)C(=O)N[C@@H](CO)C(=O)N[C@H](C(=O)NCC(N)=O)CSCC(=O)N[C@@H](Cc2ccccc2)C(=O)N[C@@H](Cc2ccc(C)cc2)C(=O)N[C@@H](CC(=O)O)C1=O` [compound 1349] ({CH2CO}-F[Phe(4-Me)]D[NHexGly]YLNR[NMeNle][Ahp(2)]P[Tle]SCG-NH2; thioether N-14) showed an IC50 of 43.6 nM.
Compound `CCCCCCN1CC(=O)N[C@@H](Cc2ccc(O)cc2)C(=O)N[C@@H](CCCC)C(=O)N[C@@H](CC(=O)O)C(=O)N[C@@H](CCCN)C(=O)N[C@@H](CC(C)C)C(=O)N[C@@H](CCCCC)C(=O)N2CCC[C@H]2C(=O)N[C@@H](C(C)C)C(=O)N[C@@H](CC(=O)O)C(=O)N[C@H](C(=O)N[C@@H](CC(=O)O)C(N)=O)CSCC(=O)N[C@@H](Cc2cccc(C)c2)C(=O)N[C@@H](Cc2c[nH]c3ccccc23)C(=O)N[C@@H](CC(=O)O)C1=O` [compound 1418] ({CH2CO}-[Phe(3-Me)]WD[NHexGly]Y[Nle]D[Orn]L[Ahp(2)]PVDCD-NH2; thioether N-14) has an IC50 [1] of 7.6 nM.
Compound `CCCCCCN1CC(=O)N[C@@H](Cc2ccc(O)cc2)C(=O)N[C@@H](CCCC)C(=O)N[C@@H](CC(=O)O)C(=O)N[C@@H](CCCNC(=N)N)C(=O)N[C@@H](CC(C)C)C(=O)N[C@@H](CCCCC)C(=O)N2CCC[C@H]2C(=O)N[C@@H](C(C)C)C(=O)N[C@@H](CC(=O)O)C(=O)N[C@H](C(=O)N[C@@H](CC(=O)O)C(N)=O)CSCC(=O)N[C@@H](Cc2cccc(C)c2)C(=O)N[C@@H](Cc2c[nH]c3ccccc23)C(=O)N[C@@H](CC(=O)O)C1=O` [compound 1419] ({CH2CO}-[Phe(3-Me)]WD[NHexGly]Y[Nle]DRL[Ahp(2)]PVDCD-NH2; thioether N-14) has an IC50 [1] of 8.1 nM.
Compound `CCCCCCN1CC(=O)N[C@@H](Cc2ccc(O)cc2)C(=O)N[C@@H](CCCC)C(=O)N[C@@H](CC(N)=O)C(=O)N[C@@H](CCCNC(=N)N)C(=O)N[C@@H](CC(C)C)C(=O)N[C@@H](CCCCC)C(=O)N2CCC[C@H]2C(=O)N[C@@H](C(C)C)C(=O)N[C@@H](CC(=O)O)C(=O)N[C@H](C(=O)NCC(=O)O)CSCC(=O)N[C@@H](Cc2cccc(C)c2)C(=O)N[C@@H](Cc2c[nH]c3ccccc23)C(=O)N[C@@H](CC(=O)O)C1=O` [compound 1420] ({CH2CO}-[Phe(3-Me)]WD[NHexGly]Y[Nle]NRL[Ahp(2)]PVDCG-OH; thioether N-14) has an IC50 [1] of 2 nM.
With `CCCCCCN1CC(=O)N[C@@H](Cc2ccc(O)cc2)C(=O)N[C@@H](CCCC)C(=O)NCC(=O)N[C@@H](CCCNC(=N)N)C(=O)N[C@@H](CC(C)C)C(=O)N[C@@H](CCCCC)C(=O)N2CCC[C@H]2C(=O)N[C@@H](C(C)C)C(=O)N[C@@H](CC(=O)O)C(=O)N[C@H](C(=O)NCC(=O)O)CSCC(=O)N[C@@H](Cc2cccc(C)c2)C(=O)N[C@@H](Cc2c[nH]c3ccccc23)C(=O)N[C@@H](CC(=O)O)C1=O` [compound 1421] ({CH2CO}-[Phe(3-Me)]WD[NHexGly]Y[Nle]GRL[Ahp(2)]PVDCG-OH; thioether N-14) the IC50 [1] was 3.1 nM.
In the case of `CCCCCCN1CC(=O)N[C@@H](Cc2ccc(O)cc2)C(=O)N[C@@H](CC(C)C)C(=O)N[C@@H](CC(N)=O)C(=O)N[C@@H](CCCNC(=N)N)C(=O)N[C@@H](CC(C)C)C(=O)N[C@@H](CCCCC)C(=O)N2CCC[C@H]2C(=O)N[C@@H](C(C)C)C(=O)N[C@@H](C(C)C)C(=O)N[C@H](C(=O)NCC(=O)O)CSCC(=O)N[C@@H](Cc2cccc(C)c2)C(=O)N[C@@H](Cc2c[nH]c3ccccc23)C(=O)N[C@@H](CC(=O)O)C1=O` [compound 1422] ({CH2CO}-[Phe(3-Me)]WD[NHexGly]YLNRL[Ahp(2)]PVVCG-OH; thioether N-14), the IC50 [1] is reported as 4.2 nM.
`CCCCCCN1CC(=O)N[C@@H](Cc2ccc(O)cc2)C(=O)N[C@@H](CCCC)C(=O)N[C@@H](CC(N)=O)C(=O)N[C@@H](CCCNC(N)=O)C(=O)N[C@@H](CC(C)C)C(=O)N[C@@H](CCCCC)C(=O)N2CCC[C@H]2C(=O)N[C@@H](C(C)C)C(=O)N[C@@H](CC(=O)O)C(=O)N[C@H](C(=O)NCC(=O)O)CSCC(=O)N[C@@H](Cc2cccc(C)c2)C(=O)N[C@@H](Cc2c[nH]c3ccccc23)C(=O)N[C@@H](CC(=O)O)C1=O` [compound 1423] ({CH2CO}-[Phe(3-Me)]WD[NHexGly]Y[Nle]N[Cit]L[Ahp(2)]PVDCG-OH; thioether N-14) gave an IC50 [1] of 16.7 nM.
For `CCCCCCN1CC(=O)N[C@@H](Cc2ccc(O)cc2)C(=O)N[C@@H](CCCC)C(=O)N[C@@H](CC(N)=O)C(=O)N[C@@H](CCCNC(=N)N)C(=O)N[C@@H](CC(C)C)C(=O)N[C@@H](CCCCC)C(=O)N2CCC[C@H]2C(=O)N[C@@H](C(C)C)C(=O)N[C@@H](CC(=O)O)C(=O)N[C@H](C(=O)N[C@@H](CO)C(=O)O)CSCC(=O)N[C@@H](Cc2cccc(C)c2)C(=O)N[C@@H](Cc2c[nH]c3ccccc23)C(=O)N[C@@H](CC(=O)O)C1=O` [compound 1424] ({CH2CO}-[Phe(3-Me)]WD[NHexGly]Y[Nle]NRL[Ahp(2)]PVDCS-OH; thioether N-14), the IC50 [1] was 11.9 nM.
